One assay concerns LN229 MGMT−/MMR− cells. Put plainly: Short-term cell viability assay. Type of assay: cell-based, human. Here is the method:
(§1) Short-term Cell Viability Assay. Cells were seeded in 96-well plates at 1000 or 2000 cells/well and allowed to adhere at 23° C. for 60 min and then incubated overnight at 37° C. Cells were treated with indicated concentrations of compounds in triplicate for 4-6 days prior to fixation with 3.7% paraformaldehyde and nuclear staining with 1 μg/mL Hoechst 33342 dye. Cells were imaged on a Cytation 3 imaging reader (BioTek) and quantified using CellProfiler software.
Statistical analysis. Statistical analysis was performed using GraphPad Prism software. Data are presented as mean or median±SD or SEM as indicated. For in vitro short-term growth delay experiments, IC50 values were determined from the nonlinear regression equation, [inhibitor] vs normalized response with variable slope. […]
We synthesized the imidazotetrazine 4a (KL-50) and the triazene 4b (KL-85), as vehicles to deliver 2-fluoroethyl diazonium (4c), and a series of related agents to probe structure-activity relationships in tissue culture (FIG. Z1, D and F). […] We evaluated the cytotoxicity of our compounds in short-term cell viability assays against four isogenic LN229 glioblastoma cell lines engineered to be proficient or deficient in MGMT and/or MMR activity, using short hairpin RNAs (shRNAs) targeting MSH2 (referred to as MGMT+/−, MMR+/− cells hereafter; FIG. ZS2A). […]

Assay [1] has as its system LN229 MGMT−/MMR+ and MGMT−/MMR− cells. As to the kind of experiment: IR alkaline comet assay. Format: cell-based, human. The method, then:
IR Alkaline Comet Assay. Assay was performed utilizing the CometAssay Kit (Trevigen) according to the alkaline assay protocol, with the addition of slide irradiation post-lysis. Cells were trypsinized, washed with 1×PBS, added to melted Comet LMAgarose (Trevigen), and spread on Trevigen CometSlides at a density of 1000 cells per sample in 50 μL. Lysis solution (Trevigen) with 10% DMSO was added overnight at 4° C. Slides were removed from lysis buffer and irradiated to 0 or 10 Gy using an XRAD 320 X-Ray System (Precision X-Ray) at 320 kV, 12.5 mA, and 50.0 cm SSD, with a 2 mm Al filter and 20 cm×20 cm collimator. Slides were then placed in alkaline buffer (200 mM NaOH, 1 mM EDTA) for 45 min, followed by electrophoresis in 850 mL alkaline buffer for 45 min at 4° C. Slides were washed and stained with SYBR gold (Invitrogen) per Trevigen assay protocol. Slides were imaged on a Cytation 3 imaging reader (BioTek), and comets were analyzed using CometScore 2.0 software (TriTek).
We used a well-established comet assay adapted for ICL detection to determine if ICLs were formed in MGMT− cells treated with KL-50 (4a) (FIG. Z3, A and B). In this assay, cells were sequentially exposed to genotoxins and ionizing radiation, and then analyzed by single cell alkaline gel electrophoresis. Attenuation of the IR-induced comet tail is indicative of ICL formation.

The test system of assay [2] is genomic DNA of LN229 MGMT−/MMR+ cells. Put plainly: Genomic DNA denaturing gel electrophoresis. Format: cell-based, human. As to conditions: 200 μM, 24 h. The method, then:
Genomic DNA Denaturing Gel Electrophoresis. Cells were trypsinized, washed with 1×PBS, and stored at −80° C. prior to processing. Genomic DNA was extracted with the DNeasy Blood & Tissue Kit (Qiagen) per kit protocol. A 0.7% agarose gel was prepared in 100 mM NaCl-2 mM EDTA (pH 8) and soaked in 40 mM NaOH-1 mM EDTA running buffer for 2 h. Genomic DNA (400 ng/well) was then loaded in 1× BlueJuice loading buffer (Invitrogen) and subjected to electrophoresis at 2 V/cm for 30 min, followed by 3 V/cm for 2 h. The gel was neutralized in 150 mM NaCl-100 mM Tris (pH 7.4) for 30 min, twice, and then stained with 1× SYBR Gold in 150 mM NaCl-100 mM Tris (pH 7.4) for 90 min. Imaging was performed on a ChemiDoc XRS+ Molecular Imager (Bio-Rad).

For assay [3], the system named is PD20 cells, FANCD2−/− or +FANCD2. As to the kind of experiment: Short-term cell viability assay in FANCD2 model. Type of assay: cell-based, human. To be noted: PD20 FANCD2−/− versus +FANCD2. Here is the method: (§2) FIGS. Z4A-Z4I. KL-50 (4a) activates DNA damage response pathways and cycle arrest in MGMT− cells, independent of MMR, and induces sensitivity in cells deficient in ICL or HR repair. (FIGS. Z4A, Z4B, and Z4C) Phospho-SER139-H2AX (γH2AX) (A), 53BP1 (FIG. Z4B), and phospo-SER33-RPA2 (pRPA) (FIG. Z4C) foci formation quantified by % cells with 10 foci in LN229 MGMT+/−, MMR+/− cells treated with 0.1% DMSO control, 20 μM KL-50 (4a), or 20 μM TMZ (1a) for 48 h. Columns, mean; error bars, SD; n≥5 technical replicates. Additional time course data is presented in FIG. ZS6B to D. (FIG. Z4D) Representative foci images of data in (FIG. Z4A) to (FIG. Z4C). (FIG. Z4E) Percentage of cells in G1, S, and G2 cell cycle phases after treatment as in (A) to (C), measured using integrated nuclear (Hoechst) staining intensity. Columns, mean; error bars, SD; n=3 independent analyses. (FIG. Z4F) Change in percent cells with 1 micronuclei from baseline (DMSO control) after treatment as in (FIG. Z4A) to (FIG. Z4C). Columns, mean; error bars, SD; […] technical replicates; **** p<0.0001; ns, not significant. Additional validation is presented in FIG. ZS9, A and B. (FIG. Z4G) Short-term viability assay curves for KL-50 (4a) in PD20 cells, deficient in FANCD2 (FANCD2−/−) or complemented with FANCD2 (+FANCD2). (FIG. Z4H) Short-term viability assay curves for KL-50 (4a) in PEO4 (BRCA2+) and PEO1 (BRCA2−/−) cells pre-treated with 0.01% DMSO control or 10 μM O^6BG (+O^6BG) for 1 h prior to KL-50 (4a) addition. (FIG. Z4I) Short-term viability assay curves for KL-50 (4a) in DLD1 BRCA2+/− and BRCA2−/− cells pre-treated with 0.01% DMSO control or 10 μM O^6BG (+O^6BG) for 1 h prior to KL-50 (4a) addition. For (FIG. Z4G), (FIG. Z4H), and (FIG. Z4I), points, mean; error bars, SD; n=3 technical replicates.
Short-term Cell Viability Assay. Cells were seeded in 96-well plates at 1000 or 2000 cells/well and allowed to adhere at 23° C. for 60 min and then incubated overnight at 37° C. […] Cells were imaged on a Cytation 3 imaging reader (BioTek) and quantified using CellProfiler software.

Assay [4] relates to PEO4 (BRCA2+) and PEO1 (BRCA2−/−) cells. Put plainly: Short-term cell viability assay in PEO1/4 model. Type of assay: cell-based, human. As to conditions: for therapeutic index (TI): PEO1/4 model, ratio of IC50 values; for sensitivity of BRCA2-deficient cells (in words): PEO1 versus PEO4, ± 10 μM O^6BG. The method, then: as §2, §1
Assay [5] concerns DLD1 BRCA2+/− and BRCA2−/− cells. Put plainly: Short-term cell viability assay in DLD1 isogenic model. Format: cell-based, human. To be noted: for sensitivity of BRCA2-deficient cells (in words): DLD1 BRCA2−/− versus BRCA2+/−, ± 10 μM O^6BG; for therapeutic index (TI): ratio of IC50 values in MGMT+/BRCA2+ cells compared to MGMT−/BRCA2− cells. The method, then: as §2, §1
The subject of assay [6] is linearized pUC19 plasmid DNA. Put plainly: Melting temperature assay. Type of assay: biochemical. To be noted: 100 or 500 μM for 3 h. Here is the method:
Melting Temperature Assay. Linearized pUC19 DNA (750 ng), prepared as described above, was incubated with the indicated concentration of either MMS or KL-50 (4a) adjusted in a final volume of 18 μL in 100 mM Tris buffer (pH 7.4) for 3 h. Drug stock concentrations were made in DMSO such that each reaction contained a fixed 5% DMSO concentration. Afterwards, 1 μL each of 20× SYBR Green dye (Invitrogen) and 20× ROX reference dye (Invitrogen) was added and melting temperature analysis was run on a StepOnePlus RT PCR System (Applied Biosciences) to generate melting temperature curves.

Assay [7] relates to four isogenic LN229 glioblastoma cell lines (MGMT+/−, MMR+/−). Type of assay: cell-based. As to conditions: LN229 MGMT+ versus MGMT− cells; listed as 12a. Here is the method:
as §1
Statistical analysis. Statistical analysis was performed using GraphPad Prism software. Data are presented as mean or median±SD or SEM as indicated. For in vitro short-term growth delay experiments, IC50 values were determined from the nonlinear regression equation, [inhibitor] vs normalized response with variable slope. For micronuclei assays, comparisons were made with one-way ANOVA and Sidak correction for multiple comparisons. For xenograft growth delay experiments, comparisons were made with Mann-Whitney test (for comparison of 2 groups) or Kruskal-Wallis test with FDR-adjusted p-values with Q set to 5% (for comparison of ≥3 groups). For xenograft survival analysis, Kaplan-Meier analysis was used to evaluate survival rate based on death or removal from study when body weight loss exceeded 20% of initial body weight
We synthesized the imidazotetrazine 4a (KL-50) and the triazene 4b (KL-85), as vehicles to deliver 2-fluoroethyl diazonium (4c), and a series of related agents to probe structure-activity relationships in tissue culture (FIG. Z1, D and F). The 2-fluoropropyl- and 3-fluoropropyl-triazenes (10 and 11, respectively) were prepared by diazotization of 4-aminoimdazole-5-carboxamide, followed by the addition of the respective amine. All other triazenes were prepared according to literature procedures. We evaluated the cytotoxicity of our compounds in short-term cell viability assays against four isogenic LN229 glioblastoma cell lines engineered to be proficient or deficient in MGMT and/or MMR activity, using short hairpin RNAs (shRNAs) targeting MSH2 (referred to as MGMT+/−, MMR+/− cells hereafter; FIG. ZS2A). This approach allowed us to rapidly and rigorously interrogate the relationship between MGMT and MMR status and compound activity.
The compounds 10a through 10l and TMZ were tested in the short-term cell viability assay.

In assay [8] the test system is LN229 MGMT+/−, MMR+/− cells. Put plainly: Clonogenic cell survival assay. As to conditions: cell status given in the value.
Procedure: Cells were trypsinized, washed, counted, and diluted in a medium containing various concentrations of drug. They were then immediately seeded in six-well plates in triplicate at three-fold dilutions, ranging from 9000 to 37 cells per well. Depending on colony size, these plates were kept in the incubator for 10 to 14 days. After incubation, colonies were washed in phosphate-buffered saline (PBS), stained with crystal violet, counted, and quantified.

In general, IC50 refers to the concentration that gives 50% inhibition. In the assay with LN229 MGMT−/MMR− cells, `NC(=O)c1nc[nH]c1N=NNCCF` [KL-85] displayed an IC50 of 27.5 µM. In addition, the “effect on IR-induced comet tail, ICL detection (in words)” value in assay [1] (MGMT−/MMR+ cells, 200 μM for 24 h, 10 Gy) is reported as “Comparable results”. The “crosslinked genomic DNA (in words)” value in [2] is listed as “presence of crosslinked DNA”.
As for `CO[C@@]12[C@H](COC(N)=O)C3=C(C(=O)C(C)=C(N)C3=O)N1C[C@@H]1N[C@@H]12` [MMC, mitomycin C], the “effect on IR-induced comet tail, ICL detection (in words)” value is on record as “partial reduction in the IR-induced comet tail” in assay [1] (MGMT−/MMR+ cells, 0.1 μM for 24 h, 10 Gy) and “completely abolished the IR-induced comet tail” in assay [1] (MGMT−/MMR+ cells, 50 μM for 2 h, 10 Gy). In addition, the “comet tailing in the absence of IR (in words)” value in assay [1] (MGMT−/MMR+ cells, TMZ and KL-50 200 μM, MMC 0.1 or 50 μM) was “did not”. Further, in assay [3], the “sensitivity of FANCD2-deficient cells (in words)” value is “hypersensitivity to crosslinking agents in FANCD2−/− cells”. Moreover, the “therapeutic index (TI)” value in assay [4] was found to be 7 fold; in assay [5], 26 fold. Moreover, the “sensitivity of BRCA2-deficient cells (in words)” value was “hypersensitivity of PEO4 BRCA2−/− cells to crosslinking agents independent of MGMT depletion” in assay [4] and “hypersensitivity of DLD1 BRCA2−/− cells to crosslinking agents independent of MGMT depletion” in assay [5].
For the compound `COS(C)(=O)=O` [MMS, Methylmethane sulfonate, reference compound], the “change in DNA melting temperature (in words)” value in assay [6] was “comparable changes in measured DNA melting temperature”.
For `NC(=O)c1ncn2c(=O)n(CCCl)nnc12` [MTZ, mitozolomide], the “selectivity for MGMT-deficient cells” value in assay [7] is recorded as approximately 7 fold. Moreover, in [1] (MGMT−/MMR− cells, 200 μM, 2, 8 or 24 h, 0 Gy), the “DNA damage in unirradiated samples (in words)” value is reported as “induced maximal damage at 2 h, which decreased over time”. In addition, in [1] (MGMT−/MMR− cells, 200 μM, 2, 8 or 24 h, 10 Gy), the “rate of ICL formation, DNA mobility after IR (in words)” value is given as “reduced DNA mobility within 2 h”.
As to `N.N.[Cl][Pt][Cl]` [cisplatin], the “sensitivity of FANCD2-deficient cells (in words)” value in assay [3] was “hypersensitivity to crosslinking agents in FANCD2−/− cells”. In addition, in [4], the “therapeutic index (TI)” value is recorded as 13 fold and the “sensitivity of BRCA2-deficient cells (in words)” value was “hypersensitivity of PEO4 BRCA2−/− cells to crosslinking agents independent of MGMT depletion”. Further, in [5], the “sensitivity of BRCA2-deficient cells (in words)” value was “hypersensitivity of DLD1 BRCA2−/− cells to crosslinking agents independent of MGMT depletion” and the “therapeutic index (TI)” value was determined as 42 fold.
As to `O=NN(CCCl)C(=O)NC1CCCCC1` [lomustine], the “clonogenic survival (in words)” value in assay [8] was “effective in MMR− cells but was cytotoxic to MGMT+ cells”.

The values above are taken from patent US20240400572A1, “COMPOUNDS AND METHODS FOR TREATING CANCERS THAT ARE MGMT DEFICIENT REGARDLESS OF MMR STATUS” (Yale University, priority 2021, published 2024).
